Measurements as given in patent US20130225694A1, “COMPOSITIONS AND METHODS OF INHIBITING RETINAL DEGENERATION” (Oklahoma Medical Research Foundation, priority 2012, published 2013).
Like-named read-outs stand apart in the source and are kept apart here.

Experiments:
[1] = target: T1, RPE65 isomerohydrolase (Bos taurus, UniProt Q28175); experiment: In vitro RPE65 isomerohydrolase assay with bovine RPE microsomes (Example 3); assay type: biochemical
T1 construct: Bovine RPE microsomes were used as a source of the RPE65 protein; from tissue; host or cells: bovine RPE microsomes
T1 sequence (Q28175 whole entry): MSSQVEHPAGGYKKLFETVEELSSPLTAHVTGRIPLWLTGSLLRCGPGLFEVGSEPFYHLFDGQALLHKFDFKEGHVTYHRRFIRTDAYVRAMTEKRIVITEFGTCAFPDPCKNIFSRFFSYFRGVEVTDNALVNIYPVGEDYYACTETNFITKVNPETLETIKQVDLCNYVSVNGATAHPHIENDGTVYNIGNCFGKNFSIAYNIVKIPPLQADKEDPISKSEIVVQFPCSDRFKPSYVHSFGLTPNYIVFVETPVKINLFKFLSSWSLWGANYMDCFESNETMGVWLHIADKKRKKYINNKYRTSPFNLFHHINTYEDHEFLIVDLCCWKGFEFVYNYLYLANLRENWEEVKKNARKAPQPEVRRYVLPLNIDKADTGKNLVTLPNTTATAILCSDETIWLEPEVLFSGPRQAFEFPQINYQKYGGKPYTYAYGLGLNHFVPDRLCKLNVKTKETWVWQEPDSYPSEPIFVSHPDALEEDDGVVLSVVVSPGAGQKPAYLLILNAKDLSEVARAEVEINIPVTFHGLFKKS
Text: In this Example, the effect of several PBN analogs on RPE65 isomerohydrolase activity was investigated in an in vitro assay. The chemical structures of the PBN analogs utilized are described herein above. Bovine RPE microsomes were used as a source of the RPE65 protein and all-trans-[^3H] retinol was a substrate for the isomerohydrolase assay. The produced 11-cis-[^3H] retinol was quantified by normal phase HPLC with flow scintillation analyzer. The inhibition of isomerohydrolase activity was dependent on the PBN analog's concentration.
FIG. 9 also illustrates the calculation of IC50 values for the two difluoro-PBN analogs. IC50 values are the concentration of the inhibitor that inhibits 50% of the enzymatic activity. Therefore, the smaller the IC50 value, the better the drug.

[2] = system: retinal retinol dehydrogenases (RDHs); experiment: Assay for retinal RDH activity in mouse retinal microsomes; assay type: biochemical; settings: 2 mM PBN, NADPH-dependent reduction of all-trans-retinal
Protocol: Assay for retinal RDH activity—The effect of PBN on retinal dehydrogenase (RDH) enzymes was determined in vitro using mouse retinal microsomes. […] Homogenates were centrifuged at 10,000 g for 10 minutes at 4° C. The resulting supernatants were then centrifuged at 100,000 g for 1 hour at 4° C., and microsomal pellets were resuspended in storage buffer [50 mM Tris-Cl (pH 7.2), 1 mM EDTA, 20% glycerol, 1 mM dithiothreitol, and the protease inhibitors described above]. Protein concentrations were measured, and microsomal fractions were stored at −80° C. after snap freezing in liquid nitrogen.
Reactions were carried out in 1 ml reaction buffer [100 mM Tris-HCl (pH 7.2), 200 mM NaCl, 1 mM dithiothreitol, 2 mg/ml bovine serum albumin, and 1% (v/v) glycerol] with 5 μg of microsomes, 0 or 75 μM of NADPH, 0 or 2 mM PBN, and increasing concentrations of the substrate all-trans-retinal. […] Retinoids were extracted with 2 volumes of hexane and analyzed by HPLC. […] The peaks of all-trans-retinal (substrate) and all-trans-retinol (product of the reaction) were identified and quantified by comparison with pure retinoid isomeric standards. […] For each condition the non-enzymatic conversion of all-trans-retinal to all-trans-retinol measured in absence of NADPH was subtracted from the conversion obtained with NADPH to determine the NADPH-dependant activity of retinal RDHs. […]

CC(C)(C)/[N+]([O-])=C/c1ccccc1 [Compound 1, α-phenyl-N-tert-butyl nitrone]
IC50 ([1]; apparent IC50, bovine RPE microsomes, all-trans-[3H] retinol substrate (Table 1), read-out: IC50 Values for the Inhibition of RPE65 Isomerohydrolase Reaction): 100 µM | IC50 ([1]; in vitro RPE65 isomerohydrolase IC50 values repeated in Table 7, read-out: IC50): 100 µM | inhibition of retinal RDH activity [2]: did not inhibit
